# Assay results published in EP2141164A1, “New 1,2,4-triazine derivatives and biological applications thereof” (priority 2008, dated 2010).
# Read-outs that look alike come from different tables or passages of the source.
# Columns and labels:
# RfaE = molecular target: T1, RfaE (Escherichia coli, UniProt P76658); assay: RfaE luminescent assay (inhibition of the enzymatic activity of RfaE); type: biochemical, E.coli; conditions: luminescent ATP detection; 3 nM RfaE, 0.2 µM β-heptose-7-phosphate, 0.2 µM ATP; 30 min pre-incubation
# T1 construct: made in house; host or cells: E.coli
# Excerpt: RfaE is a kinase sharing similarities with the ribokinases family. It catalyses an essential step of the biosynthesis of L-ADP-Heptose, namely the phosphorylation of β-heptose-7-phosphate (H7P) into β-heptose-1,7-bisphosphate (H1,7P). RfaE assays as described in the literature are essentially based on direct HLPC detection of the substrates H7P and ATP, and of the products H1,7P and ADP, raising obvious limitations for HTS applications. The assays described below are based either on luminescent ATP detection, or on fluorescent ADP detection. They are easily amenable to miniaturized formats and fast readouts as required by HTS.
# The assay buffer "AB" contains 50 mM Hepes pH=7.5, 1 mM MnCl2, 25 mM KCI, 0.012% Triton-X100 and 1 mM DTT (Dithiothreitol). The following components are added in a white polystyrene Costar plate up to a final volume of 31 µL: 3 µL DMSO, or inhibitor dissolved in DMSO and 28 µL RfaE in AB. After 30min of pre-incubation at room temperature, 29 µL of Substrates mix in AB are added in each well to a final volume of 60 µL. This reaction mixture is then composed of 3 nM RfaE (produced in house from E.coli), 0.2 µM β -heptose-7-phosphate (in house synthesis) and 0.2 µM ATP (Sigma) in assay buffer. After 40min of incubation at room temperature, 200 µL of the revelation mix are added to a final volume of 260 µL, including the following constituents at the respective final concentrations: 2 nM luciferase (Sigma), 30 µM D-luciferin (Sigma), 100 µM N-acetylcysteamine (Aldrich). Luminescence intensity is immediately measured on an Analyst-HT (Molecular Devices) and converted into inhibition percentages.
# For IC50 determinations, the inhibitor is tested at 6 to 10 different concentrations, and the related inhibitions are fitted to a classical langmuir equilibrium model using XLFIT (IDBS).
# E. coli K12 AcrAB- TolC- = assay: Sensitization to complement killing assay (MIC with/without serum); type: cell-based; conditions: Escherichia coli, 18-22H at 35°C
# Method: The Gram-negative bacteria E. coli K12 AcrAB-/TolC- (K12 strain for which efflux pump components AcrA, AcrB and TolC have been deleted) is grown on Müller Hinton agar (MHA) overnight at 35°C. Five well isolated colonies from overnight agar growth are then added to 10 mL of cation adjusted Müller-Hinton Broth (MH2) and incubated at 35°C with constant shaking for two hours to reach the exponential phase. The suspension is then diluted to obtain an inoculum of 1.5E+04 CFU/mL. Viable counts are obtained by plating 10 to 1000-fold dilutions of the suspension on MHA. A solution of decomplemented Foetal Bovine Serum (dFBS) is prepared by heating normal FBS at 56°C for 30min. Compound dilutions are prepared in DMSO/water 20/80 in polypropylene plates. The following components are added on a polystyrene sterile culture plate in a final volume of 100µL: 5µL of compound in 20% DMSO, 30µL of FBS (30% final) or dFBS (30% final) or MH2 (0% FBS), 65µL of bacterial suspension at 1.5e4 CFU/mL (final inoculum of 1e4 CFU/mL). After 18-22H at 35°C incubation, the MIC of the compound in the presence of FBS 30%, dFBS 30% or FBS 0% is determined by visual inspection of bacterial pellets.
# T1 sequence (P76658 whole entry): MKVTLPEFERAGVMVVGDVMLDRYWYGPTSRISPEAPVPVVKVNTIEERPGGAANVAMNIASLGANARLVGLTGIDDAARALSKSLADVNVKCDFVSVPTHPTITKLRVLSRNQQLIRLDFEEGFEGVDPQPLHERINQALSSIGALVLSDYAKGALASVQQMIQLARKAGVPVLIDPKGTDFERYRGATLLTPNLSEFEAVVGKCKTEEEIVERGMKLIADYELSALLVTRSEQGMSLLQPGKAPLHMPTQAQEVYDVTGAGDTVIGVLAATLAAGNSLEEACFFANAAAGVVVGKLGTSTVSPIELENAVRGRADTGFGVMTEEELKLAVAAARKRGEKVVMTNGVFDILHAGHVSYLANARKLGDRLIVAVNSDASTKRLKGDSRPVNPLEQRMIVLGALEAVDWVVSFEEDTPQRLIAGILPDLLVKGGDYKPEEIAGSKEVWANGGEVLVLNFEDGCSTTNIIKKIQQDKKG
Structure (SMILES),IC50 (RfaE) [nM],further results
"Cc1nc(CNc2nncc(-c3ccccc3Cl)n2)sc1C [Example 9, 5-(2-Chlorophenyl)-N-[(4,5-dimethyl-1,3-thiazol-2-yl)methyl]-1,2,4-triazin-3-amine]",4300,–
"COc1ccc2sc(CNc3nncc(-c4c(Cl)cccc4Cl)n3)nc2c1 [Example 15, 5-(2,6-Dichlorophenyl)-N-[(5-methoxy-1,3-benzothiazol-2-yl)methyl]-1,2,4-triazin-3-amine]",130,–
"OCCOc1ccc2sc(CNc3nncc(-c4c(Cl)cccc4Cl)n3)nc2c1 [Example 16, 2-{[2-({[5-(2,6-Dichlorophenyl)-1,2,4-triazin-3-yl]amino}methyl)-1,3-benzothiazol-5-y]oxy}ethanol]",18,–
"O=C(O)COc1ccc2sc(CNc3nncc(-c4c(Cl)cccc4Cl)n3)nc2c1 [Example 17, {[2-({[5-(2,6-dichlorophenyl)-1,2,4-triazin-3-yl]amino}methyl)-1,3-benzothiazol-5-yl]oxy}acetic acid]",19,–
"O=C(COc1ccc2sc(CNc3nncc(-c4c(Cl)cccc4Cl)n3)nc2c1)NCCO [Example 18, 2-(2-{[5-(2,6-Dichloro-phenyl)-[1,2,4]triazin-3-ylamino]-methyl}-benzothiazol-5-yloxy)-N-(2-hydroxy-ethyl)-acetamide]",47,"MIC (E. coli K12 AcrAB- TolC-; read-out: MIC for E. coli K12 AcrAB- TolC-, FBS=0 (MH2 broth only)): > 32 µg/mL; MIC (E. coli K12 AcrAB- TolC-; read-out: MIC for E. coli K12 AcrAB- TolC-, decomplemented FBS=30%): > 32 µg/mL; MIC (E. coli K12 AcrAB- TolC-; read-out: MIC for E. coli K12 AcrAB- TolC-, normal (complemented) FBS=30%): 4 µg/mL"
"CN(C)CCNC(=O)COc1ccc2sc(CNc3nncc(-c4c(Cl)cccc4Cl)n3)nc2c1 [Example 19, 2-(2-{[5-(2,6-Dichloro-phenyl)-[1,2,4]triazin-3-ylamino]-methyl}-benzothiazol-5-yloxy)-N-(2-dimethylamino-ethyl)-acetamide]",165,–
"CC(=O)COc1ccc2sc(CNc3nncc(-c4c(Cl)cccc4Cl)n3)nc2c1 [Example 20, 1-{[2-({[5-(2,6-Dichlorophenyl)-1,2,4-triazin-3-yl]amino}methyl)-1,3-benzothiazol-5-yl]oxy}acetone]",77,–
"NC(=O)COc1ccc2sc(CNc3nncc(-c4c(Cl)cccc4Cl)n3)nc2c1 [Example 21, 2-{[2-({[5-(2,6-Dichlorophenyl)-1,2,4-triazin-3-yl]amino}methyl)-1,3-benzothiazol-5-yl]oxy}acetamide]",67,–
"COc1ccc2ccccc2c1-c1cnnc(NCc2nc3ccccc3s2)n1 [Example 22, Benzothiazol-2-ylmethyl-[5-(2-methoxy-naphthalen-1-yl)-[1,2,4]triazin-3-yl]-amine]",130,–
"COc1ccc2sc(CNc3nncc(-c4c(OC)ccc5ccccc45)n3)nc2c1 [Example 29, N-[(5-Methoxy-1,3-benzothiazol-2-yl)methyl]-5(2-methoxy-1-naphthyl)-1,2,4-triazin-3-amine]",51,–
"Oc1ccc2ccccc2c1-c1cnnc(NCc2nc3ccccc3s2)n1 [Example 32, 1-{3-[(Benzothiazol-2-ylmethyl)-amino]-[1,2,4]triazin-5-yl}-naphthalen-2-ol]",63,–
"Oc1ccc2sc(CNc3nncc(-c4c(O)ccc5ccccc45)n3)nc2c1 [Example 33, 2-{[5-(2-Hydroxy-naphthalen-1-yl)-[1,2,4]triazin-3-ylamino]-methyl}-benzothiazol-5-ol]",20,–
"COc1ccc2sc(CNc3nncc(-c4c(C)cccc4O)n3)nc2c1 [Example 35, 2-(3-{[(5-Methoxy-1,3-benzothiazol-2-yl)methyl]amino}-1,2,4-triazin-5-yl)-3-methylphenol]",69,–
"Cc1cccc(O)c1-c1cnnc(NCc2nc3cc(NCc4nccs4)ccc3s2)n1 [Example 43, 3-Methyl-2-{3-[({5-[(1,3-thiazol-2-ylmethyl)amino]-1,3-benzothiazol-2-yl}methyl)amino]-1,2,4-triazin-5-yl}phenol]",410,–
"COc1cccc(OC)c1-c1cnnc(NCc2nc3c(s2)CCCC3)n1 [Example 57, 5-(2,6-Dimethoxyphenyl)-N-(4,5,6,7-tetrahydro-1,3-benzothiazol-2-ylmethyl)-1,2,4-triazin-3-amine]",1900,–
"Oc1cccc2sc(CNc3nncc(-c4ccccc4C(F)(F)F)n3)nc12 [Example 64, 2-[({5-[2-(Trifluoromethyl)phenyl]-1,2,4-triazin-3-yl}amino)methyl]-1,3-benzothiazol-4-ol]",5600,–
"COc1cccc(C)c1-c1cnnc(NCc2nc3cccnc3s2)n1 [Example 70, 5-(2-Methoxy-6-methylphenyl)-N-([1,3]thiazolo[5,4-b]pyridin-2-ylmethyl)-1,2,4-triazin-3-amine]",3100,–
"COc1ccc2sc(CNc3nncc(-c4c(C)cc(NC(=O)CN(C)C)cc4C)n3)nc2c1 [Example 75, 2-Dimethylamino-N-(4-{3-[(5-methoxy-benzothiazol-2-ylmethyl)-amino]-[1,2,4]triazin-5-yl}-3,5-dimethyl-phenyl)-acetamide]",190,–
"COc1cccc(OC)c1-c1cnnc(N(CC(=O)O)Cc2nc3ccccc3s2)n1 [Example 90, {(1,3-Benzothiazol-2-ylmethyl)[5-(2,6-dimethoxyphenyl)-1,2,4-triazin-3-yl]amino}acetic acid]",2000,–
"NCCSc1ccc2sc(CNc3nncc(-c4c(Cl)cccc4Cl)n3)nc2c1 [Example 94, N-({5-[(2-Aminoethyl)thio]-1,3-benzothiazol-2-yl}methyl)-5-(2,6-dichlorophenyl)-1,2,4-triazin-3-amine]",250,–
"COc1ccc2sc(CNc3nncc(-c4cc(-c5ccn[nH]5)ccc4Cl)n3)nc2c1 [Example 97, 5-[2-Chloro-5-(1H-pyrazol-3-yl)phenyl]-N-[(5-methoxy-1,3-benzothiazol-2-yl)methyl]-1,2,4-triazin-3-amine]",53,–
"COc1ccc2sc(CNc3nncc(-c4cc(-c5cn[nH]c5)ccc4Cl)n3)nc2c1 [Example 98, 5-[2-Chloro-5-(1H-pyrazol-4-yl)phenyl]-N-[(5-methoxy-1,3-benzothiazol-2-yl)methyl]-1,2,4-triazin-3-amine]",49,–
"COc1ccc2sc(CNc3nncc(-c4cc(-c5cccnc5)ccc4Cl)n3)nc2c1 [Example 99, 5-(2-Chloro-5-pyridin-3-ylphenyl)-N-[(5-methoxy-1,3-benzothiazol-2-yl)methyl]-1,2,4-triazin-3-amine]",150,–
"COc1ccc2sc(CNc3nncc(-c4cc(-c5cn(CCO)nn5)ccc4Cl)n3)nc2c1 [Example 100, 2-[4-(4-Chloro-3-{3-[(5-methoxy-benzothiazol-2-ylmethyl)-amino]-[1,2,4]triazin-5-yl}-phenyl)-[1,2,3]triazol-1-yl]-ethanol]",255,–
"COc1ccc2sc(CNc3nncc(-c4ccc(N5CCNCC5)cc4Cl)n3)nc2c1 [Example 107, N-[(5-Methoxy-1,3-benzothiazol-2-yl)methyl]-5-(2-chloro-4-piperazin-1-ylphenyl)-1,2,4-triazin-3-amine]",670,–
"Cc1cc(NCCN(C)C)cc(C)c1-c1cnnc(NCc2nc3cc(OCCN)ccc3s2)n1 [Example 108, N-[4-(3-{[5-(2-Amino-ethoxy)-benzothiazol-2-ylmethyl]-amino}-[1,2,4]triazin-5-yl)-3,5-dimethyl-phenyl]-N',N'-dimethyl-ethane-1,2-diamine]",1400,–
